{"source": "patent US20190216731A1", "about": "“PROCESS FOR PROVIDING PARTICLES WITH REDUCED ELECTROSTATIC CHARGES” (Chiesi Farmaceutici S.p.A., priority 2010, published 2019)", "key": {"[1]": {"settings": "cited from earlier work"}, "[2]": {"experiment": "Dispersive surface energy by inverse gas chromatography (IGC)", "assay_type": "physicochemical", "settings": "IGC at 25° C., 0% RH, FIG. 1", "protocol": "The surface energies were measured by inverse gas chromatography (IGC). All analyses were carried out using the SMS-iGC 2000 and the SMS-iGC v1.3 standard analysis suite and SMS-iGC v1.21 advanced analysis suite of macros. A flame ionization detector (FID) was used to determine the retention times. The samples were stored in a cold (˜5° C.), dry environment until run on the IGC. For all experiments, the powders were packed into a silanized glass column (300 mm long by 4 mm diameter) using the SMS Column Packing Accessory. All columns were analyzed 3 times sequentially to check for irreversible chemisorption effects and equilibrium after preconditioning.\nIn this study, the columns were pre-treated for 2 hours at 25° C. and 0% RH in a helium carrier gas to condition the sample. Then, the surface energy measurements were performed at 25° C. (3 times sequentially with a 2-hour conditioning between runs). All experiments were carried out at 10 sccm total flow rate of helium, and injection vapor concentration of 0.03 P/0 for all elutants."}}, "data": [{"compound": "O.OC[C@H]1O[C@@H](O[C@H]2[C@H](O)[C@@H](O)[C@@H](O)O[C@@H]2CO)[C@H](O)[C@@H](O)[C@H]1O", "note": "[Meggle D30 reference, α-lactose monohydrate]", "values": [{"measurement": "dispersive surface energy, values reported in the literature", "setting": "[1]", "result": 41, "unit": "mJm^−2"}, {"measurement": "dispersive surface energy", "setting": "[2]", "result": 41.8, "unit": "mJm^−2"}]}, {"compound": "magnesium stearate", "values": [{"measurement": "dispersive surface energy, values reported in the literature", "setting": "[1]", "result": 41, "unit": "mJm^−2"}, {"measurement": "dispersive surface energy", "setting": "[2]", "result": 42.1, "unit": "mJm^−2"}]}]}
